Experimental findings from ChEMBL document CHEMBL1128632, “The discovery of a series of new non-indole 5HT1D agonists” (Bioorg Med Chem Lett, 1995) are described below.

The species named for experiment [1] is Canis familiaris. The experiment in a line: Effective dose required to induce constriction of dog saphenous vein segments. The note with it: Canis lupus familiaris, read-out: ED50 (the source's name). Type of experiment: functional.
Experiment [2] addresses T1, 5-hydroxytryptamine receptor 1A (Homo sapiens, UniProt P08908).
T1 sequence (P08908 whole entry): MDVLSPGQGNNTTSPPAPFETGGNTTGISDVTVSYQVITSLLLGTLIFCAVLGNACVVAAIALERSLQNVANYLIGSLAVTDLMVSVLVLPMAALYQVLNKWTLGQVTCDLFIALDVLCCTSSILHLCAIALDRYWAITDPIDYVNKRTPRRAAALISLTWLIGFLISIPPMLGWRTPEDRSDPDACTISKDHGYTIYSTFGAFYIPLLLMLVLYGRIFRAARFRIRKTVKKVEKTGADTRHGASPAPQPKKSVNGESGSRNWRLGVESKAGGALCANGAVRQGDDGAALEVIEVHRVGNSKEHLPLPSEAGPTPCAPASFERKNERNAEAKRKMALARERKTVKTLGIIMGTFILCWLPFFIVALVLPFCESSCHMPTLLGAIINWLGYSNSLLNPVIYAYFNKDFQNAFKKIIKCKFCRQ
The experiment is described as follows: Ability to bind to 5-hydroxytryptamine 1A receptor from cloned human expressed in Ha7 cells. The format is cell-based.

The target of experiment [3] is T1, 5-hydroxytryptamine receptor 1A. The experiment in a line: Ability to bind to 5-hydroxytryptamine 1A receptor subtype from cloned human expressed in Ha7 cells. The format is cell-based.
For experiment [4], the species on record is Sus scrofa. The experiment in a line: Ability to induce constriction of pig basilary artery. The note with it: read-out: ED50 (the source's name). Type of experiment: functional.
The species entered for experiment [5] is Sus scrofa. The experiment is described as follows: Ability to induce constriction of pig basilary artery. Particulars: read-out: ED50 (the source's name). The format is functional.

The term IC50 denotes the midpoint of a concentration-inhibition curve. A higher IC50 goes with weaker potency. Turning to `c1ccc2c(c1)NCC(CNCCCNC1=NCCCN1)O2` (stereo not given), the EC50 in experiment [1] was over 1 µM. Further, in experiment [2], the IC50 is over 1 µM.
As to `COc1ccc2c(c1)CCC(CNCCCNC1=NCCCN1)O2` (stereo not given), in experiment [1], the EC50 was over 1 µM. The compound also had an IC50 in experiment [3] of over 1 µM.
For the compound `CNS(=O)(=O)Cc1ccc2[nH]cc(CCN(C)C)c2c1`, the figures for the EC50 in experiment [1] and in experiment [4] were 0.16 µM and 0.558 µM, respectively.
Consider `c1ccc2c(c1)CCC(CNCCCNc1nccs1)O2` (stereo not given), for which the EC50 in experiment [1] was found to be 0.57 µM. In experiment [2], this compound had an IC50 of 0.00158 µM.
`Fc1ccc2c(c1)CCC(CNCCCNC1=NCCCN1)O2` (stereo not given): in experiment [1], the EC50 is 0.0197 µM. This compound gave an IC50 in experiment [3] of 0.0251 µM.
In the case of `c1ccc2c(c1)OCC(CNCCCNC1=NCCCN1)O2` (stereo not given), in experiment [1], the EC50 turned out to be 0.0665 µM. The IC50 in experiment [2] is 0.02 µM.
Turning to `CC(C)/N=C(\NC#N)NCCCNCC1CCc2ccccc2O1` (stereo not given), in experiment [1], the EC50 turned out to be 0.115 µM. The compound also showed an IC50 in experiment [2] of 0.0158 µM.
`CCc1ccc2c(c1)OC(CNCCCNC1=NCCCN1)CC2` (stereo not given): in experiment [1], the EC50 is 0.00193 µM. Further, the midpoint of inhibition in experiment [3], the IC50, lay at 0.00398 µM.
With `CC1(CNCCCNC2=NCCCN2)CCc2ccccc2O1` (stereo not given), the EC50 in experiment [1] was over 1 µM. Further, the IC50 in experiment [2] was over 1 µM.
For `COc1cccc2c1OC(CNCCCNC1=NCCCN1)CC2` (stereo not given), in experiment [1], the EC50 turned out to be 0.00209 µM. This compound showed an IC50 in experiment [3] of 0.00501 µM.
`c1ccc2c(c1)CCC(CNCCCNc1nc3ccccc3[nH]1)O2` (stereo not given): the EC50 in experiment [1] was over 1 µM. In experiment [2], this compound had an IC50 of over 0.1 µM.
As to `COc1cccc2c1CCC(CNCCCNC1=NCCCN1)O2` (stereo not given), in experiment [1], the EC50 is over 1 µM. In experiment [3], the IC50 was over 1 µM.
Consider `c1ccc2c(c1)CCC(CNCCCNc1ccncn1)O2` (stereo not given), for which, in experiment [1], the EC50 was 0.0787 µM. This compound gave an IC50 in experiment [2] of 0.00501 µM.
In the case of `c1ccc2c(c1)CCC(CNCCCCCNC1=NCCCN1)O2` (stereo not given), the EC50 in experiment [1] was found to be 0.0152 µM. Besides, the IC50 in experiment [3] was 0.00501 µM.
Turning to `c1cnc(NCCCNCC2CCc3ccccc3O2)nc1` (stereo not given), the EC50 in experiment [1] was over 0.1 µM. For the same compound, inhibition in experiment [2] was half-maximal at 0.002 µM (IC50).
As for `c1ccc2c(c1)CCC(CNCCCNC1=NCCCN1)C2` (stereo not given), the EC50 in experiment [1] was determined as 0.615 µM. Besides, the IC50 in experiment [2] was 0.126 µM.
For the compound `COc1ccc2c(c1)OC(CNCCCNC1=NCCCN1)CC2` (stereo not given), the EC50 in experiment [1] is 0.0178 µM. The same compound had an IC50 in experiment [3] of 0.0126 µM.
For `c1ccc(NCCCNCC2CCc3ccccc3O2)nc1` (stereo not given), the EC50 in experiment [1] worked out at 0.38 µM. In experiment [2], the IC50 was 0.00126 µM.
With `c1ccc2c(c1)CCC(CNCCNC1=NCCCN1)O2` (stereo not given), the EC50 in experiment [1] is 0.0494 µM. In experiment [3], this compound showed an IC50 of 0.0158 µM.
For `c1ccc2c(c1)CC(CNCCCNC1=NCCCN1)CO2` (stereo not given), in experiment [1], the EC50 is over 1 µM. The IC50 in experiment [2] was over 1 µM.
In the case of `c1cnc(NCCNCC2CCc3ccccc3O2)nc1` (stereo not given), the EC50 in experiment [1] was 0.06 µM. In experiment [2], inhibition was half-maximal at 0.0316 µM (IC50).
In the case of `Clc1ccc(NCCCNCC2CCc3ccccc3O2)nn1` (stereo not given), in experiment [1], the EC50 was over 0.1 µM. Further, the IC50 in experiment [2] was 0.000398 µM.
As to `c1ccc2c(c1)CCCC(CNCCCNC1=NCCCN1)O2` (stereo not given), the EC50 in experiment [1] was over 1 µM. Further, in experiment [2], the IC50 was over 1 µM.
With `c1ccc2c(c1)CCC(CNCCCNc1cnccn1)O2` (stereo not given), the EC50 in experiment [1] worked out at 0.0155 µM. In addition, in experiment [2], the IC50 was 0.00398 µM.
With `CC(C)/N=C(\N)NNCCCNCC1CCc2ccccc2O1` (stereo not given), the EC50 in experiment [1] came out at 0.0048 µM. In addition, the IC50 in experiment [3] is 0.00794 µM.
`c1ccc2c(c1)CCC(CNCCCNC1=NCCCN1)O2` (stereo not given): the EC50 in experiment [1] came to 0.00453 µM. In experiment [3], this compound showed an IC50 of 0.0126 µM.
Regarding `c1ccc2c(c1)CCC(CNCCCNC1=NCCN1)O2` (stereo not given), the EC50 in experiment [1] was 0.0315 µM. Moreover, the IC50 in experiment [2] was 0.0126 µM.
With `c1ccc2c(c1)CC[C@@H](CNCCCNC1=NCCCN1)O2`, in experiment [1], the EC50 was determined as 0.0515 µM. This compound gave an IC50 in experiment [2] of 0.0501 µM.
With `c1ccc2c(c1)CCC(CNCCCCNC1=NCCCN1)O2` (stereo not given), in experiment [1], the EC50 turned out to be 0.011 µM. In experiment [3], this compound gave an IC50 of 0.00794 µM.
For the compound `CN1c2ccccc2CCC1CNCCCNC1=NCCCN1` (stereo not given), the EC50 in experiment [1] was over 1 µM. Also, the IC50 in experiment [2] was over 1 µM.
`c1ccc2c(c1)CC(CNCCCNC1=NCCCN1)O2` (stereo not given): in experiment [1], the EC50 was over 1 µM. In addition, the IC50 in experiment [2] is 0.0501 µM.
As to `O=C1CCCN=C(NCCCNCC2CCc3ccccc3O2)N1` (stereo not given), the EC50 in experiment [1] was over 1 µM. In experiment [2], this compound gave an IC50 of 0.002 µM.
For `c1ccc2c(c1)CCC(CNCCCNC1=NCCCC1)O2` (stereo not given), in experiment [1], the EC50 was 0.017 µM. Moreover, the IC50 in experiment [2] is 0.00631 µM.
On to `c1ccc2c(c1)CC[C@H](CNCCCNC1=NCCCN1)O2`, for which the EC50 in experiment [1] came out at 0.00909 µM; in experiment [5] (Sus scrofa) it was 0.0229 µM; in experiment [5] it was 0.0292 µM. For the same compound, in experiment [2], the IC50 is 0.00501 µM.
